Data published in the supplement of paper PMC10307832.

Columns and labels:
Assay in all cases: relative viability (nuclei count vs DMSO), 5 days (fraction); higher = more cells survive
LU99A = system: LU99A
Outline: (§1)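 Lung cancer cell lines were seeded in 1536-well plates and dosed by pin tool the next day, with either a single drug or a fixed anchor-drug dose combined with five library-drug doses (not always all listed) spaced in √10 steps. Five days later, one step fixed the cells and stained their nuclei (final 0.05% Triton X-100, 1% formaldehyde, 1 ug/ml Hoechst), and nuclei were counted on 4× images. Relative viability is the nuclei count in treated wells divided by the count in vehicle wells, and each value is the median of duplicate plates.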

NCI-H1563 = system: NCI-H1563
Outline: as §1

NCI-H1395 = system: NCI-H1395
Outline: as §1

HCC-15 = system: HCC-15
Outline: as §1

NCI-H358 = system: NCI-H358
Outline: as §1

LC-2-ad = system: LC-2-ad
Outline: as §1

NCI-H1915 = system: NCI-H1915
Outline: as §1

BEN = system: BEN
Outline: as §1

NCI-H1755 = system: NCI-H1755
Outline: as §1

HOP-62 = system: HOP-62
Outline: as §1

SW 1573 = system: SW 1573
Outline: as §1

HCC-44 = system: HCC-44
Outline: as §1

NCI-H3122 = system: NCI-H3122
Outline: as §1

NCI-H1734 = system: NCI-H1734
Outline: as §1

NCI-H2126 = system: NCI-H2126
Outline: as §1

NCI-H1437 = system: NCI-H1437
Outline: as §1

EMC-BAC-2 = system: EMC-BAC-2
Outline: as §1

NCI-H650 = system: NCI-H650
Outline: as §1

NCI-H727 = system: NCI-H727
Outline: as §1

NCI-H2023 = system: NCI-H2023
Outline: as §1

NCI-H2170 = system: NCI-H2170
Outline: as §1

## Nc1cccc2c1CN(C1CCC(=O)NC1=O)C2=O (stereo not given) [Lenalidomide] + CS(=O)(=O)CCNCc1ccc(-c2ccc3ncnc(Nc4ccc(OCc5cccc(F)c5)c(Cl)c4)c3c2)o1 [Lapatinib] (partner 2 µM)
LU99A; first compound 0.253 µM
  relative viability: 0.922
LU99A; first compound 0.8 µM
  relative viability: 0.919
LU99A; first compound 2.53 µM
  relative viability: 0.894
LU99A; first compound 8 µM
  relative viability: 0.56
NCI-H1563; first compound 0.253 µM
  relative viability: 0.919
NCI-H1563; first compound 0.8 µM
  relative viability: 0.852
NCI-H1563; first compound 2.53 µM
  relative viability: 0.979
NCI-H1563; first compound 8 µM
  relative viability: 0.763
NCI-H1395; first compound 0.253 µM
  relative viability: 1.1
NCI-H1395; first compound 2.53 µM
  relative viability: 0.948
NCI-H1395; first compound 8 µM
  relative viability: 0.845
HCC-15; first compound 0.253 µM
  relative viability: 0.902
HCC-15; first compound 2.53 µM
  relative viability: 1.07
HCC-15; first compound 8 µM
  relative viability: 0.841
NCI-H358; first compound 0.253 µM
  relative viability: 0.41
NCI-H358; first compound 0.8 µM
  relative viability: 0.623
NCI-H358; first compound 2.53 µM
  relative viability: 0.51
NCI-H358; first compound 8 µM
  relative viability: 0.453
LC-2-ad; first compound 0.253 µM
  relative viability: 0.941
LC-2-ad; first compound 0.8 µM
  relative viability: 0.96
LC-2-ad; first compound 2.53 µM
  relative viability: 1.05
LC-2-ad; first compound 8 µM
  relative viability: 1
NCI-H1915; first compound 0.253 µM
  relative viability: 0.979
NCI-H1915; first compound 0.8 µM
  relative viability: 0.807
NCI-H1915; first compound 2.53 µM
  relative viability: 1.11
NCI-H1915; first compound 8 µM
  relative viability: 1.02
BEN; first compound 0.253 µM
  relative viability: 0.898
BEN; first compound 0.8 µM
  relative viability: 0.587
BEN; first compound 2.53 µM
  relative viability: 0.918
BEN; first compound 8 µM
  relative viability: 0.489
NCI-H1755; first compound 0.253 µM
  relative viability: 1.02
NCI-H1755; first compound 0.8 µM
  relative viability: 1
NCI-H1755; first compound 2.53 µM
  relative viability: 1.04
NCI-H1755; first compound 8 µM
  relative viability: 0.916
HOP-62; first compound 0.253 µM
  relative viability: 1
HOP-62; first compound 0.8 µM
  relative viability: 0.578
HOP-62; first compound 2.53 µM
  relative viability: 1.26
HOP-62; first compound 8 µM
  relative viability: 0.924
SW 1573; first compound 0.253 µM
  relative viability: 1.12
SW 1573; first compound 0.8 µM
  relative viability: 1.08
SW 1573; first compound 2.53 µM
  relative viability: 1.12
SW 1573; first compound 8 µM
  relative viability: 0.992
HCC-44; first compound 0.253 µM
  relative viability: 0.997
HCC-44; first compound 0.8 µM
  relative viability: 0.799
HCC-44; first compound 2.53 µM
  relative viability: 1.05
HCC-44; first compound 8 µM
  relative viability: 0.924
NCI-H3122; first compound 0.253 µM
  relative viability: 1.04
NCI-H3122; first compound 0.8 µM
  relative viability: 1.03
NCI-H3122; first compound 2.53 µM
  relative viability: 0.974
NCI-H3122; first compound 8 µM
  relative viability: 1.13
NCI-H1734; first compound 0.253 µM
  relative viability: 1.09
NCI-H1734; first compound 0.8 µM
  relative viability: 1.1
NCI-H1734; first compound 2.53 µM
  relative viability: 1.18
NCI-H1734; first compound 8 µM
  relative viability: 0.969
NCI-H2126; first compound 0.253 µM
  relative viability: 0.743
NCI-H2126; first compound 0.8 µM
  relative viability: 0.537
NCI-H2126; first compound 2.53 µM
  relative viability: 0.733
NCI-H2126; first compound 8 µM
  relative viability: 0.584
NCI-H1437; first compound 0.253 µM
  relative viability: 0.692
NCI-H1437; first compound 0.8 µM
  relative viability: 0.758
NCI-H1437; first compound 2.53 µM
  relative viability: 1.11
NCI-H1437; first compound 8 µM
  relative viability: 0.914
EMC-BAC-2; first compound 0.253 µM
  relative viability: 0.921
EMC-BAC-2; first compound 0.8 µM
  relative viability: 0.825
EMC-BAC-2; first compound 2.53 µM
  relative viability: 0.905
EMC-BAC-2; first compound 8 µM
  relative viability: 0.754
NCI-H650; first compound 0.253 µM
  relative viability: 1.04
NCI-H650; first compound 2.53 µM
  relative viability: 1.01
NCI-H650; first compound 8 µM
  relative viability: 0.804
NCI-H727; first compound 0.253 µM
  relative viability: 0.685
NCI-H727; first compound 2.53 µM
  relative viability: 1
NCI-H727; first compound 8 µM
  relative viability: 0.781
NCI-H2023; first compound 0.253 µM
  relative viability: 0.74
NCI-H2023; first compound 0.8 µM
  relative viability: 0.859
NCI-H2023; first compound 2.53 µM
  relative viability: 0.838
NCI-H2023; first compound 8 µM
  relative viability: 0.568
NCI-H2170; first compound 0.253 µM
  relative viability: 0.26
NCI-H2170; first compound 0.8 µM
  relative viability: 0.293
NCI-H2170; first compound 2.53 µM
  relative viability: 0.296
NCI-H2170; first compound 8 µM
  relative viability: 0.247

## Nc1cccc2c1CN(C1CCC(=O)NC1=O)C2=O (stereo not given) [Lenalidomide] + Cc1nc(NC(=O)N2CCC[C@H]2C(N)=O)sc1-c1ccnc(C(C)(C)C(F)(F)F)c1 [Alpelisib] (partner 2 µM)
LU99A; first compound 0.253 µM
  relative viability: 0.47
LU99A; first compound 0.8 µM
  relative viability: 0.501
LU99A; first compound 2.53 µM
  relative viability: 0.501
LU99A; first compound 8 µM
  relative viability: 0.317
NCI-H1563; first compound 0.253 µM
  relative viability: 0.843
NCI-H1563; first compound 0.8 µM
  relative viability: 0.908
NCI-H1563; first compound 2.53 µM
  relative viability: 0.829
NCI-H1563; first compound 8 µM
  relative viability: 0.87
NCI-H1395; first compound 0.253 µM
  relative viability: 0.946
NCI-H1395; first compound 2.53 µM
  relative viability: 1.06
NCI-H1395; first compound 8 µM
  relative viability: 0.948
HCC-15; first compound 0.253 µM
  relative viability: 1.02
HCC-15; first compound 2.53 µM
  relative viability: 0.886
HCC-15; first compound 8 µM
  relative viability: 0.865
NCI-H358; first compound 0.253 µM
  relative viability: 0.902
NCI-H358; first compound 0.8 µM
  relative viability: 0.834
NCI-H358; first compound 2.53 µM
  relative viability: 0.838
NCI-H358; first compound 8 µM
  relative viability: 1.06
LC-2-ad; first compound 0.253 µM
  relative viability: 0.86
LC-2-ad; first compound 0.8 µM
  relative viability: 0.98
LC-2-ad; first compound 2.53 µM
  relative viability: 0.84
LC-2-ad; first compound 8 µM
  relative viability: 0.881
NCI-H1915; first compound 0.253 µM
  relative viability: 0.984
NCI-H1915; first compound 0.8 µM
  relative viability: 1.07
NCI-H1915; first compound 2.53 µM
  relative viability: 1.13
NCI-H1915; first compound 8 µM
  relative viability: 1.07
BEN; first compound 0.253 µM
  relative viability: 1.05
BEN; first compound 0.8 µM
  relative viability: 1.01
BEN; first compound 2.53 µM
  relative viability: 1.16
BEN; first compound 8 µM
  relative viability: 0.788
NCI-H1755; first compound 0.253 µM
  relative viability: 0.865
NCI-H1755; first compound 0.8 µM
  relative viability: 0.913
NCI-H1755; first compound 2.53 µM
  relative viability: 0.985
NCI-H1755; first compound 8 µM
  relative viability: 0.8
HOP-62; first compound 0.253 µM
  relative viability: 0.983
HOP-62; first compound 0.8 µM
  relative viability: 1.08
HOP-62; first compound 2.53 µM
  relative viability: 0.984
HOP-62; first compound 8 µM
  relative viability: 0.828
SW 1573; first compound 0.253 µM
  relative viability: 0.775
SW 1573; first compound 0.8 µM
  relative viability: 0.921
SW 1573; first compound 2.53 µM
  relative viability: 1.01
SW 1573; first compound 8 µM
  relative viability: 0.696
HCC-44; first compound 0.253 µM
  relative viability: 0.865
HCC-44; first compound 0.8 µM
  relative viability: 0.594
HCC-44; first compound 2.53 µM
  relative viability: 0.821
HCC-44; first compound 8 µM
  relative viability: 0.663
NCI-H3122; first compound 0.253 µM
  relative viability: 0.779
NCI-H3122; first compound 0.8 µM
  relative viability: 0.961
NCI-H3122; first compound 2.53 µM
  relative viability: 0.797
NCI-H3122; first compound 8 µM
  relative viability: 0.659
NCI-H1734; first compound 0.253 µM
  relative viability: 0.669
NCI-H1734; first compound 0.8 µM
  relative viability: 0.757
NCI-H1734; first compound 2.53 µM
  relative viability: 0.746
NCI-H1734; first compound 8 µM
  relative viability: 0.608
NCI-H2126; first compound 0.253 µM
  relative viability: 0.735
NCI-H2126; first compound 0.8 µM
  relative viability: 0.75
NCI-H2126; first compound 2.53 µM
  relative viability: 0.646
NCI-H2126; first compound 8 µM
  relative viability: 0.55
NCI-H1437; first compound 0.253 µM
  relative viability: 1.01
NCI-H1437; first compound 0.8 µM
  relative viability: 1.03
NCI-H1437; first compound 2.53 µM
  relative viability: 1.09
NCI-H1437; first compound 8 µM
  relative viability: 1
EMC-BAC-2; first compound 0.253 µM
  relative viability: 0.691
EMC-BAC-2; first compound 0.8 µM
  relative viability: 0.706
EMC-BAC-2; first compound 2.53 µM
  relative viability: 0.762
EMC-BAC-2; first compound 8 µM
  relative viability: 0.625
NCI-H650; first compound 0.253 µM
  relative viability: 1.22
NCI-H650; first compound 2.53 µM
  relative viability: 1.41
NCI-H650; first compound 8 µM
  relative viability: 1.15
NCI-H727; first compound 0.253 µM
  relative viability: 0.546
NCI-H727; first compound 2.53 µM
  relative viability: 0.543
NCI-H727; first compound 8 µM
  relative viability: 0.553
NCI-H2023; first compound 0.253 µM
  relative viability: 0.594
NCI-H2023; first compound 0.8 µM
  relative viability: 0.745
NCI-H2023; first compound 2.53 µM
  relative viability: 0.697
NCI-H2023; first compound 8 µM
  relative viability: 0.61
NCI-H2170; first compound 0.253 µM
  relative viability: 0.881
NCI-H2170; first compound 0.8 µM
  relative viability: 0.781
NCI-H2170; first compound 2.53 µM
  relative viability: 0.84
NCI-H2170; first compound 8 µM
  relative viability: 0.755
